Measurements from ChEMBL document CHEMBL1201862, “PubChem BioAssay data set” (2004).
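Each compound was tested at five concentrations against cells in 96-well plates for 48 hours. Here, GI50 denotes the concentration required for 50% inhibition of growth.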 Active and inactive are the calls of the source. Rule as the data show it: active = GI50 up to about 1.1 µM and inactive = higher.

Assays:
Test in all cases: NCI anticancer screen, dose series, 48 h
[1] = test system: EKVX
[2] = test system: SF-295
[3] = test system: IGROV-1
[4] = test system: SK-MEL-28
[5] = test system: OVCAR-5
[6] = test system: MDA-N
[7] = test system: SR
[8] = test system: UO-31
[9] = test system: MDA-MB-231
[10] = test system: OVCAR-3
[11] = test system: COLO 205
[12] = test system: MCF7
[13] = test system: SW-620
[14] = test system: CCRF-CEM
[15] = test system: MDA-MB-435
[16] = test system: SK-OV-3
[17] = test system: SN12C
[18] = test system: NCI-H23
[19] = test system: TK-10
[20] = test system: SF-268
[21] = test system: OVCAR-8
[22] = test system: M14
[23] = test system: RXF 393
[24] = test system: A549
[25] = test system: 786-0
[26] = test system: NCI/ADR-RES
[27] = test system: T47D
[28] = test system: HCT-116
[29] = test system: NCI-H522
[30] = test system: HCC 2998
[31] = test system: SK-MEL-2
[32] = test system: HL-60
[33] = test system: NCI-H226
[34] = test system: SNB-75
[35] = test system: HT-29
[36] = test system: RPMI-8226
[37] = test system: ACHN
[38] = test system: UACC-257
[39] = test system: U-251
[40] = test system: Hs-578T
[41] = test system: SK-MEL-5
[42] = test system: SF-539
[43] = test system: MOLT-4
[44] = test system: K562
[45] = test system: BT-549
[46] = test system: Malme-3M
[47] = test system: HCT-15
[48] = test system: SNB-19
[49] = test system: UACC-62
[50] = test system: LOX IMVI
[51] = test system: KM12
[52] = test system: HOP-92
[53] = test system: PC-3
[54] = test system: CAKI-1
[55] = test system: HOP-62
[56] = test system: DU-145
[57] = test system: OVCAR-4
[58] = test system: A498

In the case of `Cc1cc2ncn(C3CCCO3)c2cc1C` (stereo not drawn), the GI50 [1] was > 100 µM (inactive), the GI50 [2] was > 100 µM (inactive) and the GI50 [3] was > 100 µM (inactive). The GI50 [4] was > 100 µM (inactive), the GI50 [5] was > 100 µM (inactive) and the GI50 [6] was > 100 µM (inactive). The GI50 [7] was > 100 µM (inactive), the GI50 [8] was 28.3 µM (inactive) and the GI50 [9] was > 100 µM (inactive). The GI50 [10] was > 100 µM (inactive), the GI50 [11] was > 100 µM (inactive) and the GI50 [12] was > 100 µM (inactive). For the same compound, the GI50 [13] was > 100 µM (inactive), the GI50 [14] was > 100 µM (inactive) and the GI50 [15] was > 100 µM (inactive). For the same compound, the GI50 [16] was > 100 µM (inactive), the GI50 [17] was > 100 µM (inactive) and the GI50 [18] was > 100 µM (inactive). The GI50 [19] was > 100 µM (inactive), the GI50 [20] was > 100 µM (inactive) and the GI50 [21] was > 100 µM (inactive). The GI50 [22] was > 100 µM (inactive), the GI50 [23] was > 100 µM (inactive) and the GI50 [24] was > 100 µM (inactive). The GI50 [25] was > 100 µM (inactive), the GI50 [26] was > 100 µM (inactive) and the GI50 [27] was > 100 µM (inactive). For the same compound, the GI50 [28] was > 100 µM (inactive), the GI50 [29] was 12.1 µM (inactive) and the GI50 [30] was > 100 µM (inactive). The GI50 [31] was > 100 µM (inactive), the GI50 [32] was > 100 µM (inactive) and the GI50 [33] was > 100 µM (inactive). The GI50 [34] was 71.6 µM (inactive), the GI50 [35] was > 100 µM (inactive) and the GI50 [36] was > 100 µM (inactive). For the same compound, the GI50 [37] was > 100 µM (inactive), the GI50 [38] was > 100 µM (inactive) and the GI50 [39] was > 100 µM (inactive). The GI50 [40] was > 100 µM (inactive), the GI50 [41] was > 100 µM (inactive) and the GI50 [42] was > 100 µM (inactive). For the same compound, the GI50 [43] was > 100 µM (inactive), the GI50 [44] was > 100 µM (inactive) and the GI50 [45] was > 100 µM (inactive). The GI50 [46] was > 100 µM (inactive), the GI50 [47] was > 100 µM and the GI50 [48] was > 100 µM (inactive). The GI50 [49] was > 100 µM (inactive), the GI50 [50] was > 100 µM (inactive) and the GI50 [51] was 74.5 µM (inactive). For the same compound, the GI50 [52] was > 100 µM (inactive), the GI50 [53] was > 100 µM (inactive) and the GI50 [54] was > 100 µM (inactive). For the same compound, the GI50 [55] was > 100 µM (inactive), the GI50 [56] was > 100 µM (inactive) and the GI50 [57] was > 100 µM (inactive).

`CCCCc1ccc(Nc2nc3ncnc-3c[nH]2)cc1` was tested, and the GI50 [1] was 25.8 µM (inactive), the GI50 [2] was 18.2 µM (inactive) and the GI50 [3] was 17.3 µM (inactive). The GI50 [5] was 37.2 µM (inactive), the GI50 [6] was 32.8 µM (inactive) and the GI50 [7] was > 10 µM (inactive). For the same compound, the GI50 [8] was 12.5 µM (inactive), the GI50 [9] was 12.8 µM (inactive) and the GI50 [10] was 14.2 µM (inactive). For the same compound, the GI50 [11] was 16.7 µM (inactive), the GI50 [12] was 29.6 µM (inactive) and the GI50 [13] was 20.4 µM (inactive). For the same compound, the GI50 [14] was 7.94 µM (inactive), the GI50 [15] was 33.7 µM (inactive) and the GI50 [16] was 18.4 µM (inactive). For the same compound, the GI50 [17] was 18.8 µM (inactive), the GI50 [18] was 18.2 µM (inactive) and the GI50 [19] was 17 µM (inactive). The GI50 [20] was 16.3 µM (inactive), the GI50 [21] was 17.8 µM (inactive) and the GI50 [22] was 18.6 µM (inactive). The GI50 [23] was 18.5 µM (inactive), the GI50 [24] was 21.7 µM (inactive) and the GI50 [25] was 25.6 µM (inactive). The GI50 [26] was 18.3 µM (inactive), the GI50 [27] was 19.1 µM (inactive) and the GI50 [28] was 20.2 µM (inactive). The GI50 [29] was 21.6 µM (inactive), the GI50 [30] was 16.8 µM (inactive) and the GI50 [31] was 20.2 µM (inactive). For the same compound, the GI50 [32] was 38.5 µM (inactive), the GI50 [33] was 15.9 µM (inactive) and the GI50 [34] was 14.6 µM (inactive). For the same compound, the GI50 [35] was 21 µM (inactive), the GI50 [36] was 14.8 µM (inactive) and the GI50 [37] was 15.2 µM (inactive). The GI50 [38] was 21.2 µM (inactive), the GI50 [39] was 22.1 µM (inactive) and the GI50 [40] was 5.52 µM (inactive). For the same compound, the GI50 [41] was 16.6 µM (inactive), the GI50 [42] was 26.7 µM (inactive) and the GI50 [43] was 14.3 µM (inactive). The GI50 [44] was 33.3 µM (inactive), the GI50 [45] was 25.7 µM (inactive) and the GI50 [46] was 19.6 µM (inactive). For the same compound, the GI50 [47] was 17.5 µM, the GI50 [48] was 18.2 µM (inactive) and the GI50 [49] was 21 µM (inactive). For the same compound, the GI50 [50] was 20.5 µM (inactive), the GI50 [51] was 19.4 µM (inactive) and the GI50 [52] was 21.8 µM (inactive). The GI50 [58] was 26.1 µM (inactive), the GI50 [54] was 19.4 µM (inactive) and the GI50 [55] was 17.7 µM (inactive). The GI50 [56] was 15.9 µM (inactive) and the GI50 [57] was 25.3 µM (inactive).
